Starred links: 1 amine or outer side, 2 acyl side, 3 side chain; linkers in the order of their positions; H or OH if unused. Positions of bridges follow the written chain, without caps; N, C: chain ends. Non-standard residues stand in square brackets, D forms with d. Residues, ends and D or L forms follow the SMILES beside them. Chains are numbered I, II in the order given. Actinocin(9to1) = Cc1c2oc3c(C)ccc(C(=O)[*:1])c3nc-2c(C(=O)[*:2])c(N)c1=O; NMeV = CN[C@H](C(=O)O)C(C)C; Sar = CNCC(=O)O
Tests used:
K-562 cells = experiment: MTS cytotoxicity assay; type: cell-based; conditions: 3 days exposure
Description: di-Methylthiozol Tetrazolium (MTT assay): Proliferation assays are used in cell biology for the study of growth factors, cytokines and cytotoxic agents. There are several ways to measure the number of cells in a proliferation assay. MTT assay is a rapid and convenient method of determining viable cells in proliferation, cell attachment, chemotaxis and apoptosis assays.
di-Methylthiozol Tetrazolium Salt (MTS assay): MTS assay is a rapid and convenient method of determining viable cells in proliferation or cytotoxic assays. The use of this analog of MTT, provides a stable reaction over time. MTS assay is based on the cellular conversion of a tetrazolium salt into a formozan product that is soluble in tissue culture media and can easily be detected using a 96-well plate reader. This conversion is presumably accomplished by NADPH or NADH produced by dehydrogenases enzymes present in metabolically active cells. MTS is preferred over MTT because the MTS formazan product is soluble in tissue culture medium. In addition the MTS assay require fewer steps than MTT assay. Consequently, we have used MTS for our testing. MTS assay-Method: K-562 (typical cancer cell line used for cytotoxicity assays) cells were seeded in 96-well plates at a concentration of 2.5×10^4 cells/ml. Oosporein and Actinomycin D (a known cytotoxic compound) were prepared in 10% DMSO and added to cells the next day (final DMSO concentration was 0.5%). Oosporein was assessed at a final concentration on the cells of 100, 50, 25, 12.5, 6.25 and 3.125 μg/ml (2-fold dilutions) in quadruplicate. A known toxic agent, Actinomycin D, was added at 100, 20, 4, 0.8 and 0.16 ng/ml (5-fold dilutions). After 3 days exposure to test compound or controls, MTS reagent was prepared and added to the cells. After 3 hours, the accumulation of formazan product was determined by measuring the absorbance at 490 nm. The background absorbance of the cells detected at 630 nm was then subtracted from the initial 490 nm reading. Percent toxicity was determined using the following formula: [formula] [formula] […]

[1] = test system: strain NC of Puccinia coronata; experiment: Greenhouse experiment, pure compound Oosporein sprayed on inoculated oat seedlings (telia induction); type: in vivo, Puccinia coronata on oat (cv. Brooks) seedlings; conditions: table title strain NC (method text: strain MN); for Percentage of plants with telia: oat cv. Brooks seedlings, pure compound at 100 μg/ml applied four days after inoculation, mean of five replicates; for Telia intensity Rating: scale 0 = healthy to 3.0 = >15% of leaf area with telia, pure compound 100 μg/ml
Experimental: iv) Both crude extracts and fractions were tested at 10 mg/ml and the pure compound at 100 μg/ml
1.c. Greenhouse Experiments with the Pure Compound, Oosporein Isolated from of A. album (Aa 100 Isolate):
The pure compound (Oosporein) isolated from A. album (Aa 100) dissolved in 500 μl of DMSO and 9.5 ml of sterile distilled water (SDW) with 20 μl of Tween 80. The controls consisted of 500 μl of DMSO in 9.5 ml of SDW with 20 μl of Tween 80. and 10 ml of SDW with 20 μl of Tween 80. Ten ml of each treatment were atomized on 2-3 week-old, oat seedlings previously inoculated with strain MN of Puccinia coronata. Treatments were applied four days after inoculation when flecking symptoms of infection were present, but before uredia were observed (FIG. 1). There were five replicates of each treatment arranged in a randomized complete block design.

rusts = experiment: Conversion of infective urediniospores to non-infective teliospores in rusts

Row | SMILES | Percent toxicity on K-562 cells (K-562 cells; 100 ng/ml) [%] | Percentage of plants with telia [1] [%] | Percentage of plants with telia ([1]; listed as Ooosporein) | Telia intensity Rating [1] | Telia intensity Rating ([1]; listed as Ooosporein) | toxicity on K-562 cells (K-562 cells; 25 μg/ml or less) | toxicity on K-562 cells (K-562 cells; 100 and 50 μg/ml) | time to conversion of infective urediniospores to non-infective teliospores (rusts; after application) | conversion of infective urediniospores to non-infective teliospores (rusts; oat, bareley, wheat, pine and soybean rust)
1 | Cc1c2oc3c(C)ccc(C(=O)N[C@@H]4C(=O)N[C@H](C(C)C)C(=O)N5CCC[C@H]5C(=O)N(C)CC(=O)N(C)[C@@H](C(C)C)C(=O)O[C@@H]4C)c3nc-2c(C(=O)N[C@@H]2C(=O)N[C@H](C(C)C)C(=O)N3CCC[C@H]3C(=O)N(C)CC(=O)N(C)[C@@H](C(C)C)C(=O)O[C@@H]2C)c(N)c1=O [Actinomycin D, reference compound] (I: T[dV]P[Sar][NMeV] / II: T[dV]P[Sar][NMeV]; ester I:1-I:C, II:1-II:C; linker I:N-II:N via Actinocin(9to1)) | ~100 | – | – | – | – | – | – | – | –
2 | CC1=C(O)C(=O)C(C2=C(O)C(=O)C(C)=C(O)C2=O)=C(O)C1=O [Oosporein] | – | 83 | higher percentage of plants with telia | 8.2 | greater intensity of telia | no toxicity whatsoever | very mild toxicity | with in three days of application | convert infective urediniospores to non-infective teliospores
